Measured values reported in PubChem BioAssay AID1324 (NMMLSC, 2008).
The source made the active and inactive calls. The rule behind the calls is not given here.

These compounds were tested against glutathione S-transferase (GST-GSH binding) (assay: GST–glutathione interaction disruption – biochemical, multiplex beads, flow cytometry, HPSMTB buffer, profiling panel (AID 1324;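 note: glutathione beads loaded with GST-green fluorescent protein and no fluorescent Bim peptide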)). Conditions: multiplex bead flow cytometry, MCF.

Row | Compound | EC50 [µM]
1 | CN1CCN(C2=C(Cl)C(=O)C(c3cnc(N4CCCCC4)s3)=C(Cl)C2=O)CC1 | 0.22
2 | CN(C)c1ncc(C2=C(Cl)C(=O)C(N3CCCC3)=C(Cl)C2=O)s1 | 8.83

Same assay, conditions: multiplex bead flow cytometry, MCF, hits give high values, concentration not given here

Row | Compound | percent span inhibition
3 | O=[N+]([O-])c1ccc(N2CCN(c3ccc(O)cc3)CC2)c(Cl)c1 | inactive
4 | Cc1csc(Nc2ccccc2C(F)(F)F)n1 | inactive
5 | CCN1CCN(c2cc(C)c3cc(NC(=S)N4CCCCC4)ccc3n2)CC1 | inactive
6 | COc1cc(/C=N/NC(=O)CN(Cc2ccco2)S(=O)(=O)c2ccccc2)ccc1O | inactive
7 | CNc1ccccc(C(=O)/C=C/c2ccccc2OC)c1=O | inactive
8 | O=C(COCC(=O)NCc1ccccc1)NCc1ccccc1 | inactive
9 | COc1ccccc1NC1=C(NC(C)=O)C(=O)c2ccccc2C1=O | inactive
10 | N/C(=N\N=C/c1ccc(Br)cc1)N/N=C\c1ccc(Br)cc1 | inactive
11 | O=C(C1=NN(c2ccccc2)C2C(=O)N(c3ccccc3)C(=O)C12)c1ccccc1 (stereo not drawn) | inactive

More lines, now with the values ahead:

Row | percent span inhibition | Compound
12 | inactive | Cc1cc(N/C(=N/S(=O)(=O)c2cc(F)ccc2F)c2ccccc2)n(-c2ccccc2)n1
13 | inactive | CC(C)(C)c1nc(NCCN2CCOCC2)c2nnn(Cc3ccccc3Cl)c2n1
14 | inactive | CC1CC2=C(NC(=S)NC2c2ccccc2F)/C(=C/c2ccccc2F)C1 (stereo not drawn)
15 | inactive | Cc1csc(SCCn2c(N3CCN(c4ccccc4)CC3)nc3c2c(=O)[nH]c(=O)n3C)n1
16 | inactive | O=C(c1cc(=O)c2ccccc2o1)N1CCN(c2ccccc2F)CC1
17 | inactive | CCN1CCN(c2cc(C)c3cc(NC(=S)N4CCN(c5ccccc5)CC4)ccc3n2)CC1
18 | inactive | COc1ccccc1N(C)S(=O)(=O)c1ccc(C(=O)OCC(N)=O)cc1
19 | inactive | COC(=O)CCC(=O)Nc1sc(Cc2ccccc2)c(C)c1C(N)=O
20 | inactive | Cc1ccc(C(=O)C(C(=O)/C=C/c2ccccc2)=C2SCCCS2)cc1
21 | inactive | COc1ccc(C)cc1Nc1ccc(C(=O)O)cc1[N+](=O)[O-]
22 | inactive | CCC(=O)OCCNc1cc(Sc2nc3ccccc3[nH]2)c2nonc2c1[N+](=O)[O-]
23 | inactive | CN(CCCOc1ccccc1Br)Cc1ccccc1
24 | inactive | CC(C)C(=O)N1CCN(c2ccc([N+](=O)[O-])cc2Cl)CC1
25 | inactive | O=C(N/N=C/c1cccc([N+](=O)[O-])c1)c1cccs1
26 | inactive | Cc1ccc(S(=O)(=O)N(C)CC(=O)N2CCc3ccccc32)cc1
27 | inactive | CCOc1cccc(CNc2ccc(O)cc2)c1OCc1ccc(Cl)cc1
28 | inactive | O=C(c1cnccn1)N(Cc1cccs1)C1(C(=O)NC2CCCCC2)CCCCC1
